Measurements: ChEMBL document CHEMBL3046332, “Ultrastructural effects of pyridalyl, an insecticidal agent, on epidermal cells of Spodoptera litura larvae and cultured insect cells Sf9” (J Pestic Sci, 2006)
Calls of active or inactive are those of the source. No cut-off for these calls is given here.

Key:
Spodoptera litura [1] = experiment: Insecticidal activity against Spodoptera litura larvae assessed as epidermal cell nuclear change at 100 ng measured after 2 hr by ultrastructural analysis/electron microscopy; assay type: functional, organism-based
Spodoptera litura [2] = experiment: Insecticidal activity against Spodoptera litura larvae assessed as paralysis at 100 ng measured after 6 hr; assay type: functional, organism-based
Spodoptera litura [3] = experiment: Insecticidal activity against Spodoptera litura larvae assessed intracytoplasmic ultrastructures of the epidermal cell at 100 ng measured after 2 hr by ultrastructural analysis/electron microscopy; assay type: functional, organism-based
Spodoptera litura [4] = experiment: Insecticidal activity against Spodoptera litura larvae assessed as diluted rough endoplasmic reticula in epidermal cell at 100 ng measured after 6 hr by ultrastructural analysis/electron microscopy; assay type: functional, organism-based
Sf9 [5] = experiment: Ultrastructural effect on Spodoptera frugiperda (fall armyworm) sf9 cells assessed as dissociation of polysomes and nuclear swelling at 1 uM measured 4 to 6 hr by electron microscopy; assay type: functional, cell-based
Sf9 [6] = experiment: Ultrastructural effect on Spodoptera frugiperda (fall armyworm) sf9 cells assessed as decrease in mitochondrial number at 1 uM measured 4 to 6 hr by electron microscopy; assay type: functional, cell-based
Sf9 [7] = experiment: Ultrastructural effect on Spodoptera frugiperda (fall armyworm) sf9 cells assessed as low density matrix mitochondria at 1 uM measured 4 to 6 hr by electron microscopy; assay type: functional, cell-based
Spodoptera litura [8] = experiment: Insecticidal activity against Spodoptera litura larvae assessed as enlarged mitochondria in epidermal cell at 100 ng measured after 4 hr by ultrastructural analysis/electron microscopy; assay type: functional, organism-based
Spodoptera litura [9] = experiment: Insecticidal activity against Spodoptera litura larvae assessed as decrease in mobility at 100 ng measured after 4 hr; assay type: functional, organism-based
Spodoptera litura [10] = experiment: Insecticidal activity against Spodoptera litura larvae assessed as diluted Golgi apparatus in epidermal cell at 100 ng measured after 6 hr by ultrastructural analysis/electron microscopy; assay type: functional, organism-based
Sf9 [11] = experiment: Ultrastructural effect on Spodoptera frugiperda (fall armyworm) sf9 cells assessed as mitochondria with disarranged cristae at 1 uM measured 8 hr by electron microscopy; assay type: functional, cell-based
Spodoptera litura [12] = experiment: Insecticidal activity against Spodoptera litura larvae assessed as midgut and ganglia at 100 ng measured after 6 hr by ultrastructural analysis/electron microscopy; assay type: functional, organism-based
Spodoptera litura [13] = experiment: Insecticidal activity against Spodoptera litura larvae assessed as shorten microvillous projections epidermal cell at 100 ng measured after 6 hr by ultrastructural analysis/electron; assay type: functional, organism-based
Spodoptera litura [14] = experiment: Insecticidal activity against Spodoptera litura larvae assessed as dorsal aorta at 100 ng measured after 6 hr by ultrastructural analysis/electron microscopy; assay type: functional, organism-based
Sf9 [15] = experiment: Ultrastructural effect on Spodoptera frugiperda (fall armyworm) sf9 cells assessed as swollen mitochondria at 1 uM measured for 8 hr by electron microscopy; assay type: functional, cell-based
Spodoptera litura [16] = experiment: Insecticidal activity against Spodoptera litura larvae assessed as condensed and shrunken epidermal cell at 100 ng measured after 6 hr by ultrastructural analysis/electron microscopy; assay type: functional, organism-based
Sf9 [17] = experiment: Ultrastructural effect on Spodoptera frugiperda (fall armyworm) sf9 cells assessed as enlarged mitochondria at 1 uM measured 4 to 6 hr by electron microscopy; assay type: functional, cell-based
Spodoptera litura [18] = experiment: Insecticidal activity against Spodoptera litura larvae assessed as symptoms at 100 ng measured after 2 hr; assay type: functional, organism-based
Spodoptera litura [19] = experiment: Insecticidal activity against Spodoptera litura larvae assessed as condensed nuclei in epidermal cell at 100 ng measured after 4 hr by ultrastructural analysis/electron microscopy; assay type: functional, organism-based
Spodoptera litura [20] = experiment: Insecticidal activity against Spodoptera litura larvae assessed as swollen mitochondria in epidermal cell at 100 ng measured after 6 hr by ultrastructural analysis/electron microscopy; assay type: functional, organism-based
Spodoptera litura [21] = experiment: Insecticidal activity against Spodoptera litura larvae assessed as muscular and fat tissues underlying the epidermis at 100 ng measured after 6 hr by ultrastructural analysis/electron microscopy; assay type: functional, organism-based; details: Adipose tissue

## FC(F)(F)c1ccc(OCCCOc2c(Cl)cc(OCC=C(Cl)Cl)cc2Cl)nc1
Spodoptera litura [1]
  Activity: inactive
Spodoptera litura [2]
  Activity: Active
Spodoptera litura [3]
  Activity: inactive
Spodoptera litura [4]
  Activity: Active
Sf9 [5]
  Activity: Active
Sf9 [6]
  Activity: Active
Sf9 [7]
  Activity: Active
Spodoptera litura [8]
  Activity: Active
Spodoptera litura [9]
  Activity: Active
Spodoptera litura [10]
  Activity: Active
Sf9 [11]
  Activity: Active
Spodoptera litura [12]
  Activity: inactive
Spodoptera litura [13]
  Activity: Active
Spodoptera litura [14]
  Activity: inactive
Sf9 [15]
  Activity: Active
Spodoptera litura [16]
  Activity: Active
Sf9 [17]
  Activity: Active
Spodoptera litura [18]
  Activity: inactive
Spodoptera litura [19]
  Activity: Active
Spodoptera litura [20]
  Activity: Active
Spodoptera litura [21]
  Activity: inactive
